The numbers were not newly measured in US5854268A, “Azetidine, pyrrolidine and piperidine derivatives” (Merck Sharp & Dohme, Ltd., priority 1994, dated 1998), which cites them from elsewhere.

For the data set the following is noted: therapeutic doses.

On to `CNS(=O)(=O)Cc1ccc2[nH]cc(CCN(C)C)c2c1` [sumatriptan], for which the “adverse events in humans” value is given as “certain adverse cardiovascular events”.
